Experimental data published in patent US11406720B2, “Fibroblast growth factor receptor 2-specific peptide reagents and methods” (THE REGENTS OF THE UNIVERSITY OF MICHIGAN, priority 2017, dated 2022).
pKd: −log10 of the molar value. Entries after “also recorded” stand apart in the source; their conditions may differ. Where no end group is shown, it is not given here.

Legend:
[1] = molecular target: T1, QhTERT cells that express FGFR2c (Homo sapiens, UniProt P21802); experiment: Competition for reagent binding with unlabeled peptide (confocal microscopy); details: unlabeled peptide 50 μM and greater (up to 500 μM) vs 0 μM; 5 μM SRR*-Cy5.5; 4° C
T1 construct: expressed in transfected cells; host or cells: QhTERT (human non-dysplastic Barrett's esophagus cells immortalized with hTert)
Procedure: We administered unlabeled SRR*, and used confocal microscopy to observe competition for binding of SRR*-Cy5.5 to QhTERT cells that express FGFR2c, FIG. 3A-L. Approximately 10^3 cells were grown to ˜70% confluence on cover glass in triplicate. Unlabeled peptides at concentrations of 0, 50, 100, 150, 250, and 500 μM were incubated with the cells for 30 min at 4° C. The cells were washed and incubated with 5 μM of the target peptide for another 30 min at 4° C. The cells were washed and fixed with 4% PFA for 5 min. The cells were washed with PBS and mounted with ProLong Gold reagent containing DAPI (Invitrogen).

[2] = molecular target: T1, QhTERT cells that express FGFR2c; experiment: Apparent association time constant by flow cytometry; assay type: binding; details: for apparent association time constant k: 5 μM, RT, 0 to 30 min; for time scale for onset of binding: from k
Procedure: We measured the apparent association time constant of the peptide reagent to QhTERT/FGFR2c cells to assess binding onset.^46 Cells were grown to ˜80% confluence in 10 cm dishes, and detached with PBS-based cell dissociation buffer (Invitrogen). Cells (˜10^5) were incubated with 5 μM SRR-Cy5.5 at RT for various time intervals ranging from 0 to 30 min. The cells were centrifuged, and washed with cold PBS. Flow cytometry analysis was performed as described above, and the median fluorescence intensity (y) were measured on flow cytometry at different time points (t) using Flowjo software. The rate constant k was calculated by fitting the data to a first order kinetics model, y(t)=Imax[1−exp^(−kt)], where Imax=maximum value using Prism 5.0 software (GraphPad Inc).

[3] = tested on: phosphorylation of FGFR2 (p-FGFR), AKT (p-AKT) and ERK (p-ERK) in QhTERT cells that express FGFR2b; experiment: Effect on cell signaling, Western blot, FGFR2b cells; assay type: cell-based, human; details: peptide 5 or 100 μM, FGF1 100 ng/mL, 20 min, vs untreated cells
Procedure: (§1) QhTERT cells that overexpress either FGFR2b or FGFR2c were seeded in 12-well flat-bottom plates with 500 μL of serum-free medium for 16 hours. FGF1 (#2232-FA-025, R&D systems) was reconstituted to a concentration of 100 μg/mL using PBS, diluted with 0.1% bovine serum albumin, and added to the cells at final concentrations of 100 ng/mL for 20 min in separate wells. Heparin (#H3149-10KU, Sigma) with final concentration of 100 unit/mL was also added to increase stability. In addition, peptides at concentrations of 5 and 100 μM were incubated for 20 min in separate wells. The cells were washed with PBS and lysed in RIPA buffer containing protease inhibitors (#11836170001, Roche, Basel, Switzerland). Lysates were separated by gel electrophoresis, transferred to polyvinylidene difluoride membranes (#ISEQ00010, Millipore), and detected by immunoblotting using an enhanced chemiluminescence system (#RPN2106, GE Healthcare). Anti-FGFR2 antibody (#SC 122, Santa Cruz Biotechnology), anti-phospho-FGFR (#3471, Cell Signaling Technology), anti-AKT (#4691P, Cell Signaling Technology), anti-ERK1/2 (#4695P, Cell Signaling Technology), anti-phospho-AKT (pS473; #4060P, Cell Signaling Technology), anti-phospho-ERK1/2 (#4370P, Cell Signaling Technology), and anti-tubulin (#32-2600, Invitrogen) were used as per manufacturer's instructions.

[4] = tested on: phosphorylation of FGFR2 (p-FGFR), AKT (p-AKT) and ERK (p-ERK) in QhTERT cells that express FGFR2c; experiment: Effect on cell signaling, Western blot, FGFR2c cells; assay type: cell-based, human; details: peptide 5 or 100 μM, FGF1 100 ng/mL, 20 min, vs untreated cells
Procedure: as §1

[5] = molecular target: T2, QhTERT cells that express FGFR2b (Homo sapiens, UniProt P21802); experiment: Confocal fluorescence microscopy, binding to QhTERT cells expressing FGFR2b
T2 construct: expressed in transfected cells; host or cells: QhTERT (human non-dysplastic Barrett's esophagus cells immortalized with hTert)
From the text: (§2) All human esophagus specimens were obtained with written, informed patient consent per approval and guidelines of the University of Michigan Institutional Review Board (IRB). Human non-dysplastic Barrett's esophagus (BE) cells immortalized with hTert (QhTERT) were obtained from the American Type Culture Collection (ATCC) and cultured in keratinocyte-serum free medium containing bovine pituitary extract and human recombinant EGF (ThermoFisher #17005042). QhTERT cells with stable expression of FGFR2b or FGFR2c were provided by DGB. We cultured these cells with keratinocyte-serum free medium containing bovine pituitary extract and human recombinant EGF (ThermoFisher #17005042) and added 1 μg/mL of puromycin-dihydrochloride (Invitrogen #A11138-03). All cells were cultured at 37° C. in 5% CO2, and were passaged using 0.25% EDTA containing trypsin (Mediatech Inc). A hemocytometer was used to count the cell number. Peptide synthesis reagents were obtained from either Anaspec or AAPPTEC with the highest grade available (>99% purity) and used without further purification. Solvents and other chemical reagents were obtained from Sigma-Aldrich, unless otherwise stated.
(§3) On confocal microscopy, we validated specific peptide reagent binding to human BE cells that express FGFR2.

[6] = molecular target: T1, QhTERT cells that express FGFR2c; experiment: Confocal fluorescence microscopy, binding to QhTERT cells expressing FGFR2c
From the text: as §2, §3

QhTERT cells wild type = experiment: Confocal fluorescence microscopy, binding to wild-type QhTERT cells; parameters: species or system human
From the text: as §2, §3

[7] = molecular target: T1, QhTERT cells that express FGFR2c; experiment: Apparent dissociation constant by flow cytometry; assay type: binding; details: 0 to 200 nM, 4° C, 1 hour
Procedure: We measured the apparent dissociation constant kd for peptide reagent binding to cells to assess binding affinity.^45 The Cy5.5-labeled peptide reagent was serially diluted in PBS at concentrations ranging from 0 to 200 nM in 25 nM increments. QhTERT/FGFR2c cells (˜10^5) were incubated with peptide at 4° C. for 1 hour, washed with cold PBS, and the mean fluorescence intensities were measured using flow cytometry. The equilibrium dissociation constant kd=1/ka was calculated by performing a least squares fit of the data to the non-linear equation I=(I0+Imaxka[X])/([…]). I0 and Imax are the initial and maximum fluorescence intensities, corresponding to no peptide and at saturation, respectively, and [X] represents the concentration of the bound peptide reagent. Prism 5.0 software (GraphPad Inc) was used to calculate kd.

[8] = tested on: human esophageal specimens (SQ, BE, HGD, EAC); experiment: Confocal microscopy staining of sections of human esophagus ex vivo; assay type: binding
Procedure: Formalin-fixed sections of human esophageal specimens were deparaffinized, and antigen retrieval was performed using standard methods. Briefly, the sections were incubated in xylene for 3 min 3×, washed with 100% ethanol for 2 min 2×, and washed with 95% ethanol for 2 min 2×. Rehydration was performed by washing in dH2O for 5 min 2×. Antigen unmasking was performed by boiling the slides in 10 mM sodium citrate buffer with 0.05% Tween at pH 6.0, and then maintaining at sub-boiling temperature for 15 min. The slides were cooled for 30 min, and the sections were washed in dH2O for 3 min 3× and in PBS for 5 min. Blocking was performed with DAKO protein blocking agent (X0909, DAKO) for 1 hour at RT. The peptides were incubated at a concentration of 1 μM for 10 min at RT. The sections were washed in PBS for 3 min 3×, and incubated with 1:1000 dilution of monoclonal anti-FGFR2 (Abcam, ab58201) overnight at 4° C.
The sections were then washed in PBS for 5 min 3×. A 1:500 dilution of AF488-labeled secondary antibody (goat anti-mouse) was added to each section and incubated for 30 min at RT. The secondary antibody solution was removed by washing with PBS for 5 min 3×. The sections were then mounted with ProLong Gold reagent containing DAPI (Invitrogen). The mean fluorescence intensities from 3 boxes (dimensions of […]) located completely within the surface epithelium of each specimen were measured. […] Serial sections were processed for routine histology (H&E), and were reviewed by an expert gastrointestinal pathologist (HDA).

[9] = tested on: sections of human esophageal squamous cell cancer (SCC); experiment: Confocal microscopy staining of human esophageal squamous cell carcinoma sections ex vivo; assay type: binding
From the text: We observed good co-localization of peptide reagent and antibody binding on merged images, FIG. 10C. Representative histology (H&E) for SCC is shown, FIG. 10D.

[10] = tested on: sections of human gastric cancer; experiment: Confocal microscopy staining of human gastric cancer sections ex vivo; assay type: binding
From the text: We observed good co-localization of peptide and antibody binding on merged images, FIG. 11C. Representative histology (H&E) for gastric cancer is shown, FIG. S6D.

T1 sequence (P21802 22-821): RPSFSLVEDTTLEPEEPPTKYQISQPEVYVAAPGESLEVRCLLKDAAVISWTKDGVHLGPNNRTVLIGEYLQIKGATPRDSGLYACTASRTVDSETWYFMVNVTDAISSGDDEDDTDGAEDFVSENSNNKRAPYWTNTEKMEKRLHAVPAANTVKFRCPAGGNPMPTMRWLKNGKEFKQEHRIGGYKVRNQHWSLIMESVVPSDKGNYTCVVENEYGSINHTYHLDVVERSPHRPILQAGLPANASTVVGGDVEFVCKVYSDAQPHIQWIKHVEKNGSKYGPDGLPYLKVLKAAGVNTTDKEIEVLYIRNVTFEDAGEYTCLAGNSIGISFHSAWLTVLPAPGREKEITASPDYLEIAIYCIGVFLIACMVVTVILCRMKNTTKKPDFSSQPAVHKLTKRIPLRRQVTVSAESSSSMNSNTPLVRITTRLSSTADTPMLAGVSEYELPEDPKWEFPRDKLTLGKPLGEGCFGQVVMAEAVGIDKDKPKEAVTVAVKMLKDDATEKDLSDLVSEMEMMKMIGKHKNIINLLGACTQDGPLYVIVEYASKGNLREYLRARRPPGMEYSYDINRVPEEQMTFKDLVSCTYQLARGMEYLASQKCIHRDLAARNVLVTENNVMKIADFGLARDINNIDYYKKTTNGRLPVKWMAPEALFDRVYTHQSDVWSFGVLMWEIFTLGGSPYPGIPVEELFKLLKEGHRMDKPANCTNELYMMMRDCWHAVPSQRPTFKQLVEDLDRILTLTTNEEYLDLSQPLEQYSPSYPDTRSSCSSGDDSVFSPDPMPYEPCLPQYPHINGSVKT
T2 sequence (P21802 22-822 isoform P21802-3 limits assumed): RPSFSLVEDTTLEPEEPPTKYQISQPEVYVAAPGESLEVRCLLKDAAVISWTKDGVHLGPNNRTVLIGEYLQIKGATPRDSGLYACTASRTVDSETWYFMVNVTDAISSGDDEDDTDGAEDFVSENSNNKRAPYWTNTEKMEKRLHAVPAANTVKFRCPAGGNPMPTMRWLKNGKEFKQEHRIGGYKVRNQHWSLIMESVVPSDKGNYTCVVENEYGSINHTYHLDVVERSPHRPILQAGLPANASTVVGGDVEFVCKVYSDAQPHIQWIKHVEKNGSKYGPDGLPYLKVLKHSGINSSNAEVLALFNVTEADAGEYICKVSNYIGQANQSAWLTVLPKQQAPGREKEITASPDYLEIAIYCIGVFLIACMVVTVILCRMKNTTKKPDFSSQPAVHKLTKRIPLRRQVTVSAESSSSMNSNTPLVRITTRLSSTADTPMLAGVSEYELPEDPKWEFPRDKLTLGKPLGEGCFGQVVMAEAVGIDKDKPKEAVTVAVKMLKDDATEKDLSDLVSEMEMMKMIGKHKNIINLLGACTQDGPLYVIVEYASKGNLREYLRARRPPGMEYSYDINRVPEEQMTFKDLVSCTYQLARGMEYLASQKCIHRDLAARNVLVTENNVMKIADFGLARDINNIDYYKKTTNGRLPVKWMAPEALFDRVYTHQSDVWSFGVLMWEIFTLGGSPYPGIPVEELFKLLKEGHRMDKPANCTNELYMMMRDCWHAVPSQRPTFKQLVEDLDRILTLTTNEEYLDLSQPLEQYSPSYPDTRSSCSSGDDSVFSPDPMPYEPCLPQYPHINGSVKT

Row | Molecule | change in binding (mean fluorescence intensity) of SRR*-Cy5.5 on addition of unlabeled peptide [1] | apparent association time constant k [2] [min⁻¹] | time scale for onset of binding [2] [min] | phosphorylation of FGFR2 (p-FGFR), AKT (p-AKT) and ERK (p-ERK) [3] | phosphorylation of FGFR2 (p-FGFR), AKT (p-AKT) and ERK (p-ERK) [4] | binding signal on cell surface (confocal microscopy) [5] | binding signal on cell surface (confocal microscopy) [6] | binding signal on cell surface (confocal microscopy) (QhTERT cells wild type) | also measured
1 | C[C@H](NC(=O)[C@@H](NC(=O)[C@H](CCCNC(=N)N)NC(=O)[C@H](Cc1ccccc1)NC(=O)[C@H](CO)NC(=O)[C@H](C)NC(=O)[C@@H]1CCCN1C(=O)[C@H](CCCNC(=N)N)NC(=O)[C@H](CCCNC(=N)N)NC(=O)[C@@H](N)CO)[C@@H](C)O)C(=O)N[C@@H](CCCNC(=N)N)C(=O)N[C@@H](CCC(=O)O)C(N)=O (relative stereo) [SRR*, SRRPASFRTARE] | significant reduction; also recorded: significant decrease | 0.16 | 6.2 | no obvious change | no obvious change | – | – | – | –
2 | FGF1: FGF1 (#2232-FA-025, R&D systems), positive control that binds FGFR2b and FGFR2c [reference compound] | – | – | – | to some extent; also recorded: shows phosphorylation activity | strong phosphorylation activity; also recorded: shows phosphorylation activity | – | – | – | –
3 | SPS*-Cy5.5: scrambled sequence SPSRERTFRARA for control, labeled with Cy5.5 via a GGGSK linker (SPSRERTFRARAGGGS-{K(Cy5.5)-NH2}) [reference compound] | – | – | – | – | – | Minimal binding; also recorded: Minimal signal | Minimal binding; also recorded: Minimal signal | Minimal binding; also recorded: Minimal signal | –
4 | SPSRERTFRARA [SPS*, unlabeled scrambled peptide used for control, reference compound] | No significant difference; also recorded: Non-significant differences | – | – | – | – | – | – | – | –
5 | SRR*-Cy5.5: 12 amino acid sequence SRRPASFRTARE with fluorophore Cy5.5 attached via a GGGSK linker on the C-terminus (not fully specified (C-terminus)) | – | 0.16 | ~6.2 | – | – | strong signal; also recorded: strong binding | strong signal; also recorded: strong binding | minimal signal | mean fluorescence intensity versus control SPS*-Cy5.5 ([5]; compared with wild-type): significantly greater; mean fluorescence intensity versus control SPS*-Cy5.5 ([6]; compared with wild-type): significantly greater; pKd [7]: 7.17; mean target-to-background (T/B) ratio for HGD and EAC versus BE and SQ ([8]; 3 boxes of 30×30 μm^2): significantly higher; staining (fluorescence intensity) of section ([8]; Barrett's esophagus (BE)): minimal fluorescence intensity; also recorded: minimal staining; staining (fluorescence intensity) of section ([8]; esophageal adenocarcinoma (EAC)): strong signal; also recorded: strong binding; staining (fluorescence intensity) of section ([8]; high-grade dysplasia (HGD)): strong signal; also recorded: strong binding; mean fluorescence intensity from HGD and EAC compared with BE ([8]; n=28, 33, 22, 17 specimens of SQ, BE, HGD, EAC): significantly greater; staining (fluorescence intensity) of section ([8]; squamous (SQ)): minimal fluorescence intensity; also recorded: minimal staining; staining (fluorescence intensity) of section ([9]; human esophageal SCC): strong fluorescence intensity; also recorded: strong binding; staining (fluorescence intensity) of section ([9]; normal human esophagus): minimal fluorescence intensity; also recorded: minimal staining; mean fluorescence intensity from SCC versus normal ([9]; paired, two-sided t-test): significantly greater; staining (fluorescence intensity) of section ([10]; human gastric cancer): strong fluorescence intensity; also recorded: strong binding; staining (fluorescence intensity) of section ([10]; normal human stomach): minimal fluorescence intensity; also recorded: minimal staining; mean fluorescence intensity from gastric cancer versus normal ([10]; paired, two-sided t-test): significantly greater
